From ChEMBL document CHEMBL2413072, “Synthesis and in vitro anticancer studies of novel C-2 arylidene congeners of lantadenes” (2013)

Columns and labels:
Assay type in all cases: functional
TK-10 [1] = test: Growth inhibition of human TK10 cells assessed as cell growth at 10^-7 M by sulforhodamine B assay; conditions: read-out: Activity
IGROV-1 [2] = test: Growth inhibition of human IGROV1 cells assessed as cell growth at 10^-6 M by sulforhodamine B assay; conditions: read-out: Activity
MDA-MB-231 [3] = test: Growth inhibition of human MDA-MB-231 cells by sulforhodamine B assay
K562 [4] = test: Growth inhibition of human K562 cells assessed as cell growth at 10^-8 M by sulforhodamine B assay; conditions: read-out: Activity
NCI-H522 = test: Growth inhibition of human NCI-H522 cells assessed as cell growth at 10^-7 M by sulforhodamine B assay; conditions: read-out: Activity
MDA-MB-468 [5] = test: Growth inhibition of human MDA-MB-468 cells assessed as cell growth at 10^-4 M by sulforhodamine B assay; conditions: read-out: Activity
RPMI-8226 = test: Growth inhibition of human RPMI8226 cells assessed as cell growth at 10^-4 M by sulforhodamine B assay; conditions: read-out: Activity
NCI-H226 = test: Growth inhibition of human NCI-H226 cells assessed as cell growth at 10^-8 M by sulforhodamine B assay; conditions: read-out: Activity
NCI-H460 = test: Growth inhibition of human NCI-H460 cells by sulforhodamine B assay
MDA-MB-468 [6] = test: Growth inhibition of human MDA-MB-468 cells by sulforhodamine B assay
HL-60(TB) = test: Growth inhibition of human HL-60(TB) cells assessed as cell growth at 10^-4 M by sulforhodamine B assay; conditions: read-out: Activity
RXF 393 = test: Growth inhibition of human RXF393 cells by sulforhodamine B assay
HCT-116 [7] = test: Growth inhibition of human HCT116 cells assessed as cell growth at 10^-4 M by sulforhodamine B assay; conditions: read-out: Activity
MDA-MB-231 [8] = test: Growth inhibition of human MDA-MB-231 cells assessed as cell growth at 10^-6 M by sulforhodamine B assay; conditions: read-out: Activity
NCI-H23 = test: Growth inhibition of human NCI-H23 cells assessed as cell growth at 10^-4 M by sulforhodamine B assay; conditions: read-out: Activity
CCRF-CEM [9] = test: Growth inhibition of human CCRF-CEM cells assessed as cell growth at 10^-6 M by sulforhodamine B assay; conditions: read-out: Activity
OVCAR-4 = test: Growth inhibition of human OVCAR4 cells assessed as cell growth at 10^-4 M by sulforhodamine B assay; conditions: read-out: Activity
SN12C [10] = test: Growth inhibition of human SN12C cells assessed as cell growth at 10^-7 M by sulforhodamine B assay; conditions: read-out: Activity
SK-MEL-2 = test: Growth inhibition of human SK-MEL-2 cells assessed as cell growth at 10^-8 M by sulforhodamine B assay; conditions: read-out: Activity
MDA-MB-435 = test: Growth inhibition of human MDA-MB-435 cells assessed as cell growth at 10^-8 M by sulforhodamine B assay; conditions: read-out: Activity
TK-10 [11] = test: Growth inhibition of human TK10 cells assessed as cell growth at 10^-6 M by sulforhodamine B assay; conditions: read-out: Activity
HOP-92 = test: Growth inhibition of human HOP92 cells assessed as cell growth at 10^-6 M by sulforhodamine B assay; conditions: read-out: Activity
OVCAR-3 = test: Growth inhibition of human OVCAR3 cells assessed as cell growth at 10^-8 M by sulforhodamine B assay; conditions: read-out: Activity
HCT-116 [12] = test: Growth inhibition of human HCT116 cells assessed as cell growth at 10^-6 M by sulforhodamine B assay; conditions: read-out: Activity
M14 = test: Growth inhibition of human M14 cells by sulforhodamine B assay
SN12C [13] = test: Growth inhibition of human SN12C cells assessed as cell growth at 10^-8 M by sulforhodamine B assay; conditions: read-out: Activity
K562 [14] = test: Growth inhibition of human K562 cells assessed as cell growth at 10^-6 M by sulforhodamine B assay; conditions: read-out: Activity
CCRF-CEM [15] = test: Growth inhibition of human CCRF-CEM cells assessed as cell growth at 10^-7 M by sulforhodamine B assay; conditions: read-out: Activity
IGROV-1 [16] = test: Growth inhibition of human IGROV1 cells assessed as cell growth at 10^-8 M by sulforhodamine B assay; conditions: read-out: Activity
786-0 [17] = test: Growth inhibition of human 786-0 cells assessed as cell growth at 10^-8 M by sulforhodamine B assay; conditions: read-out: Activity
[18] = Growth inhibition of human Hs 578T cells assessed as cell growth at 10^-7 M by sulforhodamine B assay; conditions: read-out: Activity
COLO 205 = test: Growth inhibition of human COLO205 cells assessed as cell growth at 10^-8 M by sulforhodamine B assay; conditions: read-out: Activity
[19] = Growth inhibition of human NCI-ADR-RES cells assessed as cell growth at 10^-7 M by sulforhodamine B assay; conditions: read-out: Activity
SN12C [20] = test: Growth inhibition of human SN12C cells assessed as cell growth at 10^-6 M by sulforhodamine B assay; conditions: read-out: Activity
UACC-62 = test: Growth inhibition of human UACC62 cells assessed as cell growth at 10^-7 M by sulforhodamine B assay; conditions: read-out: Activity
[21] = Growth inhibition of human NCI-ADR-RES cells assessed as cell growth at 10^-4 M by sulforhodamine B assay; conditions: read-out: Activity
Malme-3M = test: Growth inhibition of human MALME-3M cells assessed as cell growth at 10^-7 M by sulforhodamine B assay; conditions: read-out: Activity
786-0 [22] = test: Growth inhibition of human 786-0 cells by sulforhodamine B assay
SK-MEL-28 = test: Growth inhibition of human SK-MEL-28 cells by sulforhodamine B assay
CAKI-1 = test: Growth inhibition of human CAKI-1 cells assessed as cell growth at 10^-7 M by sulforhodamine B assay; conditions: read-out: Activity
MDA-MB-231 [23] = test: Growth inhibition of human MDA-MB-231 cells assessed as cell growth at 10^-7 M by sulforhodamine B assay; conditions: read-out: Activity
[24] = read-out: LC50 (the source's name)
[25] = read-out: pLC50 (the source's name) (converted)

Molecule C/C=C(/C)C(=O)O[C@@H]1CC(C)(C)C[C@H]2C3=CC[C@@H]4[C@@]5(C)CCC(=O)C(C)(C)[C@@H]5CC[C@@]4(C)[C@]3(C)CC[C@@]12C(=O)O [LANTADENE A] has a growth at 0.1 µM (TK-10 [1]) of 102%, a growth at 1 µM (IGROV-1 [2]) of 108% and a GI50 (MDA-MB-231 [3]; read-out: GI50) of 4.53 µM. For the same molecule, the CC50 (MDA-MB-231 [3]; [24]) was > 100 µM, the TGI (MDA-MB-231 [3]; read-out: TGI) was 33.4 µM and the GI50 (MDA-MB-231 [3]; read-out: pGI50 (converted)) was 4.57 µM. For the same molecule, the CC50 (MDA-MB-231 [3]; [25]) was > 100 µM, the TGI (MDA-MB-231 [3]; read-out: pTGI (converted)) was 33.1 µM and the growth at 0.01 µM (K562 [4]) was 110%. For the same molecule, the growth at 0.1 µM (NCI-H522) was 97%, the growth at 100 µM (MDA-MB-468 [5]) was 1% and the growth at 100 µM (RPMI-8226) was 10%. For the same molecule, the growth at 0.01 µM (NCI-H226) was 85%, the GI50 (NCI-H460; read-out: GI50) was 3.59 µM and the LC50 (NCI-H460; read-out: LC50) was > 100 µM. The TGI (NCI-H460; read-out: TGI) was > 100 µM, the GI50 (NCI-H460; read-out: pGI50 (converted)) was 3.63 µM and the LC50 (NCI-H460; read-out: pLC50 (converted)) was > 100 µM. The TGI (NCI-H460; read-out: pTGI (converted)) was > 100 µM, the GI50 (MDA-MB-468 [6]; read-out: GI50) was 2.58 µM and the CC50 (MDA-MB-468 [6]; [24]) was > 100 µM. The TGI (MDA-MB-468 [6]; read-out: TGI) was > 100 µM, the GI50 (MDA-MB-468 [6]; read-out: pGI50 (converted)) was 2.57 µM and the CC50 (MDA-MB-468 [6]; [25]) was > 100 µM. For the same molecule, the TGI (MDA-MB-468 [6]; read-out: pTGI (converted)) was > 100 µM, the growth at 100 µM (HL-60(TB)) was -38% and the GI50 (RXF 393; read-out: GI50) was 2.41 µM. The CC50 (RXF 393; [24]) was > 100 µM, the TGI (RXF 393; read-out: TGI) was 9.93 µM and the GI50 (RXF 393; read-out: pGI50 (converted)) was 2.4 µM. For the same molecule, the CC50 (RXF 393; [25]) was > 100 µM, the TGI (RXF 393; read-out: pTGI (converted)) was 10 µM and the growth at 100 µM (HCT-116 [7]) was 11%. It also gave a growth at 1 µM (MDA-MB-231 [8]) of 92%, a growth at 100 µM (NCI-H23) of 12% and a growth at 1 µM (CCRF-CEM [9]) of 92%. The growth at 100 µM (OVCAR-4) was 29%, the growth at 0.1 µM (SN12C [10]) was 95% and the growth at 0.01 µM (SK-MEL-2) was 111%. It also gave a growth at 0.01 µM (MDA-MB-435) of 96%, a growth at 1 µM (TK-10 [11]) of 101% and a growth at 1 µM (HOP-92) of 56%. It also gave a growth at 0.01 µM (OVCAR-3) of 109%, a growth at 1 µM (HCT-116 [12]) of 86% and a GI50 (M14; read-out: GI50) of 4.53 µM. For the same molecule, the CC50 (M14; [24]) was > 100 µM, the TGI (M14; read-out: TGI) was > 100 µM and the GI50 (M14; read-out: pGI50 (converted)) was 4.57 µM. The CC50 (M14; [25]) was > 100 µM, the TGI (M14; read-out: pTGI (converted)) was > 100 µM and the growth at 0.01 µM (SN12C [13]) was 97%. The growth at 1 µM (K562 [14]) was 87%, the growth at 0.1 µM (CCRF-CEM [15]) was 97% and the growth at 0.01 µM (IGROV-1 [16]) was 108%. It also gave a growth at 0.01 µM (786-0 [17]) of 95%, a growth at 0.1 µM [18] of 93% and a growth at 0.01 µM (COLO 205) of 106%. It also gave a growth at 0.1 µM [19] of 104%, a growth at 1 µM (SN12C [20]) of 85% and a growth at 0.1 µM (UACC-62) of 85%. The growth at 100 µM [21] was 18%, the growth at 0.1 µM (Malme-3M) was 96% and the GI50 (786-0 [22]; read-out: GI50) was 3.47 µM. The CC50 (786-0 [22]; [24]) was > 100 µM, the TGI (786-0 [22]; read-out: TGI) was > 100 µM and the GI50 (786-0 [22]; read-out: pGI50 (converted)) was 3.47 µM. The CC50 (786-0 [22]; [25]) was > 100 µM, the TGI (786-0 [22]; read-out: pTGI (converted)) was > 100 µM and the GI50 (SK-MEL-28; read-out: GI50) was 12.8 µM. For the same molecule, the CC50 (SK-MEL-28; [24]) was > 100 µM, the TGI (SK-MEL-28; read-out: TGI) was > 100 µM and the GI50 (SK-MEL-28; read-out: pGI50 (converted)) was 12.9 µM. For the same molecule, the CC50 (SK-MEL-28; [25]) was > 100 µM, the TGI (SK-MEL-28; read-out: pTGI (converted)) was > 100 µM and the growth at 0.1 µM (CAKI-1) was 94%. It also gave a growth at 0.1 µM (MDA-MB-231 [23]) of 101%.
